Experimental data as given in the NIST ThermoML archive (doi:10.1016/j.jct.2015.12.027).

Columns and labels:
[1] = xn = mol fraction of the nth substance listed; conditions: 81.5 kPa, Liquid, Vibrating tube method
[2] = refractive index (Na D-line) (dimensionless); xn = mol fraction of the nth substance listed; conditions: 81.5 kPa, Liquid, Standard Abbe refractometry

Brc1ccccc1 [bromobenzene] + ClCCCl
Conditions	mass density, 293.15 K [kg/m3]	mass density, 303.15 K [kg/m3]	mass density, 313.15 K [kg/m3]	mass density, 323.15 K [kg/m3]	mass density, 333.15 K [kg/m3]	refractive index, 293.15 K	refractive index, 303.15 K	refractive index, 313.15 K	refractive index, 323.15 K	refractive index, 333.15 K
[1], x2 = 0	1495.52	1481.97	1468.41	1454.85	1441.22	–	–	–	–	–
[1], x2 = 0.1031	1475.66	1461.99	1448.3	1434.54	1420.74	–	–	–	–	–
[1], x2 = 0.2005	1455.9	1442.07	1428.17	1414.26	1400.29	–	–	–	–	–
[1], x2 = 0.3001	1434.62	1420.64	1406.6	1392.5	1378.34	–	–	–	–	–
[1], x2 = 0.3997	1412.26	1398.16	1383.98	1369.73	1355.39	–	–	–	–	–
[1], x2 = 0.4996	1388.86	1374.68	1360.39	1345.98	1331.47	–	–	–	–	–
[1], x2 = 0.6001	1364.37	1350.09	1335.69	1321.15	1306.48	–	–	–	–	–
[1], x2 = 0.6993	1339.1	1324.73	1310.2	1295.56	1280.77	–	–	–	–	–
[1], x2 = 0.7993	1312.25	1297.77	1283.16	1268.43	1253.56	–	–	–	–	–
[1], x2 = 0.8986	1283.81	1269.28	1254.59	1239.77	1224.87	–	–	–	–	–
[2], x2 = 0	–	–	–	–	–	1.55981	1.55442	1.5489	1.54319	1.53742
[2], x2 = 0.1031	–	–	–	–	–	1.55145	1.5466	1.54165	1.53652	1.53135
[2], x2 = 0.2005	–	–	–	–	–	1.54415	1.53939	1.53455	1.52957	1.52458
[2], x2 = 0.3001	–	–	–	–	–	1.53597	1.53114	1.52627	1.5213	1.51632
[2], x2 = 0.3997	–	–	–	–	–	1.5262	1.52135	1.51645	1.51147	1.5065
[2], x2 = 0.4996	–	–	–	–	–	1.51453	1.50972	1.50487	1.49994	1.49501
[2], x2 = 0.6001	–	–	–	–	–	1.50149	1.49679	1.49202	1.48719	1.48235
[2], x2 = 0.6993	–	–	–	–	–	1.48764	1.48301	1.47833	1.47357	1.46881
[2], x2 = 0.7993	–	–	–	–	–	1.47349	1.46883	1.46414	1.45938	1.45461
[2], x2 = 0.8986	–	–	–	–	–	1.45961	1.45476	1.44989	1.44499	1.44008

Clc1ccccc1 [chlorobenzene] + ClCCCl
Conditions	mass density, 293.15 K [kg/m3]	mass density, 303.15 K [kg/m3]	mass density, 313.15 K [kg/m3]	mass density, 323.15 K [kg/m3]	mass density, 333.15 K [kg/m3]	refractive index, 293.15 K	refractive index, 303.15 K	refractive index, 313.15 K	refractive index, 323.15 K	refractive index, 333.15 K
[1], x2 = 0	1106.49	1095.71	1084.86	1073.96	1063.01	–	–	–	–	–
[1], x2 = 0.1022	1117.76	1106.63	1095.44	1084.22	1073.02	–	–	–	–	–
[1], x2 = 0.2027	1129.4	1117.99	1106.5	1094.94	1083.38	–	–	–	–	–
[1], x2 = 0.3126	1142.87	1131.14	1119.28	1107.34	1095.38	–	–	–	–	–
[1], x2 = 0.4014	1154.41	1142.36	1130.2	1117.94	1105.63	–	–	–	–	–
[1], x2 = 0.4994	1167.89	1155.52	1142.99	1130.34	1117.61	–	–	–	–	–
[1], x2 = 0.6002	1182.73	1169.98	1157.05	1143.96	1130.77	–	–	–	–	–
[1], x2 = 0.7	1198.46	1185.33	1171.98	1158.43	1144.78	–	–	–	–	–
[1], x2 = 0.7999	1215.33	1201.74	1187.98	1173.96	1159.89	–	–	–	–	–
[1], x2 = 0.9007	1233.56	1219.46	1205.18	1190.75	1176.31	–	–	–	–	–
[2], x2 = 0	–	–	–	–	–	1.52455	1.51902	1.51346	1.50781	1.50223
[2], x2 = 0.1022	–	–	–	–	–	1.51915	1.51376	1.50848	1.50327	1.49826
[2], x2 = 0.2027	–	–	–	–	–	1.51388	1.50871	1.50361	1.49855	1.49366
[2], x2 = 0.3126	–	–	–	–	–	1.50734	1.50235	1.49739	1.4924	1.4875
[2], x2 = 0.4014	–	–	–	–	–	1.50115	1.49625	1.49135	1.48642	1.48154
[2], x2 = 0.4994	–	–	–	–	–	1.49334	1.48847	1.48362	1.47874	1.47393
[2], x2 = 0.6002	–	–	–	–	–	1.48436	1.47949	1.47465	1.4698	1.46504
[2], x2 = 0.7	–	–	–	–	–	1.47478	1.46991	1.46504	1.46017	1.45535
[2], x2 = 0.7999	–	–	–	–	–	1.46481	1.45993	1.455	1.45001	1.44502
[2], x2 = 0.9007	–	–	–	–	–	1.45465	1.44969	1.44464	1.43948	1.43427
